Experimental data: patent US20060100226A1, “2-Thiopyrimidinones as therapeutic agents” (priority 2004, published 2006)

Columns and labels:
[1] = target: T1, murine MEKK2 (mMEKK2) (Mus musculus, UniProt Q61083); assay: MEKK2 PhosphoELISA (mMEKK2/MKK4); format: biochemical; conditions: substrate MKK4/SKK1 (unactive), ATP final 10 μM, O.D. 450 nm
T1 sequence (Q61083 1-619): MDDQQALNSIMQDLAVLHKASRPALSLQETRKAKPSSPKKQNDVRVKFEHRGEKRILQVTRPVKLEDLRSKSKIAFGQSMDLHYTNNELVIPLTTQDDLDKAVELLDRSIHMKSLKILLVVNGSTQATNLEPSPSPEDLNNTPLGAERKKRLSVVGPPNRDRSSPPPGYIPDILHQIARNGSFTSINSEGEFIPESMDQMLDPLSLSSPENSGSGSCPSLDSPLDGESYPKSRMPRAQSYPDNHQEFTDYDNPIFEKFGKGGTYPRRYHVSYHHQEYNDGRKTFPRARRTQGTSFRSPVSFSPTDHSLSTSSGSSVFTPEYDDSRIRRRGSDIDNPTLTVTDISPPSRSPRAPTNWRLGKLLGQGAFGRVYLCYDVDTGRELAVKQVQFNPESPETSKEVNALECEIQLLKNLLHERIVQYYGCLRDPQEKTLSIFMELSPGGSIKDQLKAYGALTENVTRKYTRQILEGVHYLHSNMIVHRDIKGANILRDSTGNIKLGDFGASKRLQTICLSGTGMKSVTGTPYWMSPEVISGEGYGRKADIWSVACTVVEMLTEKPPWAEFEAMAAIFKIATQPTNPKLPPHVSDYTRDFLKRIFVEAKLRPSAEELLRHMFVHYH
From the text: Another useful method for assessing protein kinase inhibition, and specifically MEKK2 inhibition, of compounds of the invention involves the MEKK2 phospho-antibody enzyme-linked immunosorbent assay (PhosphoELISA). This screening panel, which involves relatively few steps, is a useful indicator of potential inhibitors of MEKK2. Reactions to murine MEKK2 are observed as optical density measurements at an absorbance of 450 nm. Inhibitory activities can be expressed in terms of IC50, where IC50 is the molar concentration of compound required to inhibit protein kinase binding by 50%.
A phospho-antibody enzyme-linked immunosorbent assay (PhosphoELISA) was used to screen potential inhibitors of MEKK2. The assay was performed as follows: Compounds to be tested were weighed and solubilized in DMSO (Sigma) to a stock concentration of 10 mM. Serial dilutions starting from 1 mM were prepared with additional DMSO. These dilutions were further diluted to 250 μM in kinase reaction buffer [20 mM Hepes pH 7.5, 5 mM MgCl2, 1 mM DTT (Dithiothreitol-Sigma), 1 mM NaVO4 (sodium vanadate- Sigma). A 25 μl aliquot of this solution was transferred to a glutathione coated 96-well microplate (Pierce). A stock aliquot containing 50-125 ng of murine MEKK2 (mMEKK2) was added to each well and incubated on the microplate for 10 minutes at room temperature. A 25 μl solution of MKK4/SKK1 (unactive) was diluted 1:200 in kinase assay buffer and added to the reaction plate followed by 50 μl of 25 μM ATP (adenosine triphosphate) to afford a final well concentration of 10 μM. The reaction was allowed to proceed for 60 minutes at room temperature before washing 3 times with wash buffer [100 mM phosphate pH 7.5, 0.05% TWEEN 20 (Sigma)]. A solution of anti-phospho MKK4/SEK1 antibody (Calbiochem) and biotin anti rabbit IgG (Jackson Immunoresearch) was diluted 1:2500 in kinase reaction buffer and added to the appropriate wells. The reaction was incubated for 60 minutes at room temperature. The microplate was washed 3 times with wash buffer and 100 ul of streptavidin horseradish peroxidase (HRP-Pierce) was added and incubated for 30 minutes at room temperature. The microplate was washed 3 times with wash buffer and 100 μl of TMB (3,3′,5,5′-tetramethylbenzidine-Sigma) was added. The assay was allowed to develop for 15-20 minutes then the reaction was stopped with the addition of 100 μl of 0.2 N sulfuric acid. The optical density (O.D.) of the plate was read on the Victor™ plate reader using the absorbance at 450 nm.

[2] = target: T1, murine MEKK2 (mMEKK2); assay: TR-FRET kinase assay (mMEKK2/MBP); format: biochemical; conditions: substrate biotin MBP, 60 minutes at room temperature
Procedure, shortened: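 mMEKK2 was preincubated 10 min with compound in pH 7.5 Hepes/MgCl2/DTT/vanadate buffer, then biotin-MBP, anti-phospho-MBP antibody and ATP (5 uM solution added) were added and the reaction ran 60 min at room temperature. After EDTA stop, europium anti-mouse IgG and Cy5-streptavidin were added and TR-FRET was read at 615/665 nm.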

IC50 [1] | IC50 [2] | Compound
< 1000 nM | < 5 µM | N#Cc1c(-c2cccc([N+](=O)[O-])c2)nc(SCc2cccc(NC(=O)c3ccc(Cl)c(Cl)c3)c2)[nH]c1=O [Example 2ii, 3,4-Dichloro-N-{3-[5-cyano-4-(3-nitro-phenyl)-6-oxo-1,6-dihydro-pyrimidin-2-ylsulfanylmethyl]-phenyl}-benzamide]
< 1000 nM | < 5 µM | COc1ccc(-c2nc(SCc3cccc(NC(=O)c4ccc(Cl)c(Cl)c4)c3)[nH]c(=O)c2C#N)cc1-c1cccs1 [Example 2y, 3,4-Dichloro-N-{3-[5-cyano-4-(4-methoxy-3-thiophen-2-yl-phenyl)-6-oxo-1,6-dihydro-pyrimidin-2-ylsulfanylmethyl]-phenyl}-benzamide]
< 1000 nM | < 1 µM | N#Cc1c(-c2cccc(-c3cc4ccccc4s3)c2)nc(SCc2cccc(NC(=O)c3ccc(Cl)c(Cl)c3)c2)[nH]c1=O [Example 2z, N-{3-[4-(3-Benzo[b]thiophen-2-yl-phenyl)-5-cyano-6-oxo-1,6-dihydro-pyrimidin-2-ylsulfanylmethyl]-phenyl}-3,4-dichloro-benzamide]
< 10000 nM | < 10 µM | N#Cc1c(-c2cccc(N)c2)nc(SCc2cccc(NC(=O)c3ccc(Cl)c(Cl)c3)c2)[nH]c1=O [Example 4n]
